Consider one compound from ChEMBL document CHEMBL5055643, “Sophoraflavanone G Resensitizes ABCG2-Overexpressing Multidrug-Resistant Non-Small-Cell Lung Cancer Cells to Chemotherapeutic Drugs” (J Nat Prod, 2021).

Data set [1] deals with NCI/ADR-RES. Nature of the data set: Chemo-sensitizing activity against ABCB1-overexpressing human NCI/ADR-RES cells assessed as reversal fold at 2 uM measured after 72 hrs in presence of colchicine by CCK8 assay relative to control. The data set is classed as functional. Background: Formazan colour is commonly taken as a measure of viable cells.
Data set [2] relates to HEK293. Put plainly: Chemo-sensitizing activity against ABCB1-overexpressing human HEK293/MDR19 cells assessed as reversal fold at 1 uM measured after 72 hrs in presence of colchicine by CCK8 assay relative to control. The data set is classed as functional.
The target in data set [3] is T1, Broad substrate specificity ATP-binding cassette transporter ABCG2 (Homo sapiens, UniProt Q9UNQ0).
T1 sequence (Q9UNQ0 whole entry): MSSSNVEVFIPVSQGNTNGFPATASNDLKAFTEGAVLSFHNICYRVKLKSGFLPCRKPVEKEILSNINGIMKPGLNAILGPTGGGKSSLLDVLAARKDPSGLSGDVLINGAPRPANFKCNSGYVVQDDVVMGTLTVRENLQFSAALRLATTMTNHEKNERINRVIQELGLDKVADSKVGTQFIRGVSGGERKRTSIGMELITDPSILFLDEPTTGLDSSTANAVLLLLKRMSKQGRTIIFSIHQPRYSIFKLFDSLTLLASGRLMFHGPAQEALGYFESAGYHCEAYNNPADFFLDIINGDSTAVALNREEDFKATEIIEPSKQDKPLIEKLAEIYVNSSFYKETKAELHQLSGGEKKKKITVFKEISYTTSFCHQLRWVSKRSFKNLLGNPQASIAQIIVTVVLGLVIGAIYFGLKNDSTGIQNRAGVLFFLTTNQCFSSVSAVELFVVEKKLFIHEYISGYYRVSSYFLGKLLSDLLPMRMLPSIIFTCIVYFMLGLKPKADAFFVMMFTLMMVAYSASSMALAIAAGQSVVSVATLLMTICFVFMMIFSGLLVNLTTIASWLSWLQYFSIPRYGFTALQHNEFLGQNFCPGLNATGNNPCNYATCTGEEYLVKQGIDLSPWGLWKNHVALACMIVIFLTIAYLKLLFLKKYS
Nature of the data set: Inhibition of ABCG2 in becatecarin-selected ABCG2-overexpressing human A549/Bec150 cells assessed as increase in intracellular mitoxantrone accumulation incubated for 1 hr in presence of mitoxantrone by flow cytometry. The data set is classed as cell-based.

Data set [4] is described as follows: Cytotoxicity against ABCG2-overexpressing human HEK293/482R cells assessed as cell viability at 1 to 5 uM measured after 72 hrs by CCK8 assay. The settings on record: ABCG2-overexpressing HEK293/482R cells, dose 1-5 µM, read-out: Activity. The data set is classed as ADME, cell-based.
Data set [5] has as its system KB 3-1. Put plainly: Chemo-sensitizing activity against human KB 3-1 cells assessed as reversal fold at 2 uM measured after 72 hrs in presence of colchicine by CCK8 assay relative to control. The data set is classed as functional.
Data set [6] relates to KB-V1. Nature of the data set: Chemo-sensitizing activity against ABCB1-overexpressing human KB-V1 cells assessed as reversal fold at 2 uM measured after 72 hrs in presence of vincristine by CCK8 assay relative to control. The data set is classed as functional.
Data set [7] has as its system HEK293. Put plainly: Chemo-sensitizing activity against ABCB1-overexpressing human HEK293/MDR19 cells assessed as reversal fold at 2 uM measured after 72 hrs in presence of paclitaxel by CCK8 assay relative to control. The data set is classed as functional.
Data set [8] deals with HEK293. Put plainly: Chemo-sensitizing activity against ABCG2-overexpressing human HEK293 cells assessed as reversal fold at 2 uM measured after 72 hrs in presence of topotecan by CCK8 assay relative to control. The data set is classed as functional.

Where only a bound is given, the exact number is not on record here.

As usually defined, the IC50 is the concentration needed to halve the response being measured. Take `C=C(C)[C@H](CC=C(C)C)Cc1c(O)cc(O)c2c1O[C@H](c1ccc(O)cc1O)CC2=O` [SOPHORAFLAVANONE G]: the “fold change (FC)” value in data set [1] amounted to 0.8; in data set [2], 0.8; in data set [5], 1.1; in data set [6], 1.1; in data set [7] it was 1.2; in data set [8], 2.3. Moreover, in data set [3], the IC50 came out at 2290 nM. For the same compound, in data set [3] (human, a549, 1 h, time 1 hrs), the “inhibition (INH)” value is “Dose-dependent effect”. Moreover, the viability at 72 h, up to 5 µM in data set [4] was above 90%.
